For two compounds, inhibition results are on record in PMC7736581, “Activation of the IRE1 RNase through remodeling of the kinase front pocket by ATP-competitive ligands” (Nature Communications, 2020).

Targets include MAPKAPK2 (Homo sapiens, UniProt P49137); CDK8/cyclinC (Homo sapiens, UniProt P49336); Flt1 (Homo sapiens, UniProt P17948); Axl (Homo sapiens, UniProt P30530); STK16 (Homo sapiens, UniProt O75716); ACVR1B (Homo sapiens, UniProt P36896); CLK1 (Homo sapiens, UniProt P49759); RIPK2 (Homo sapiens, UniProt O43353); MKNK1 (Homo sapiens, UniProt Q9BUB5); MARK3 (Homo sapiens, UniProt P27448); TGFBR1 (Homo sapiens, UniProt P36897); MELK (Homo sapiens, UniProt Q14680); ErbB2 (Homo sapiens, UniProt P04626); PLK1 (Homo sapiens, UniProt P53350).

Experiment in all cases: biochemical
Holding throughout (design): Invitrogen kinase panel: Z'Lyte activity (ATP at Km) or LanthaScreen competitive ATP-site binding, percent inhibition
For orientation: In TR-FRET formats the signal depends on donor and acceptor labels being close together.

The target in the next test is T1, ZAK (Homo sapiens, UniProt Q9NYL2).
T1 construct: gene MAP3K20

The target in another test is T2, CaMKI_delta (Homo sapiens, UniProt Q8IU85).
T2 construct: gene CAMK1D

For a further test, the target named is T3, Ros (Homo sapiens, UniProt P08922).
T3 construct: gene ROS1

Another test addresses T4, PRAK (Homo sapiens, UniProt Q8IW41).
T4 construct: gene MAPKAPK5

In a further test the target is T5, Mer (Homo sapiens, UniProt Q12866).
T5 construct: gene MERTK
T5 sequence (Q12866 whole entry): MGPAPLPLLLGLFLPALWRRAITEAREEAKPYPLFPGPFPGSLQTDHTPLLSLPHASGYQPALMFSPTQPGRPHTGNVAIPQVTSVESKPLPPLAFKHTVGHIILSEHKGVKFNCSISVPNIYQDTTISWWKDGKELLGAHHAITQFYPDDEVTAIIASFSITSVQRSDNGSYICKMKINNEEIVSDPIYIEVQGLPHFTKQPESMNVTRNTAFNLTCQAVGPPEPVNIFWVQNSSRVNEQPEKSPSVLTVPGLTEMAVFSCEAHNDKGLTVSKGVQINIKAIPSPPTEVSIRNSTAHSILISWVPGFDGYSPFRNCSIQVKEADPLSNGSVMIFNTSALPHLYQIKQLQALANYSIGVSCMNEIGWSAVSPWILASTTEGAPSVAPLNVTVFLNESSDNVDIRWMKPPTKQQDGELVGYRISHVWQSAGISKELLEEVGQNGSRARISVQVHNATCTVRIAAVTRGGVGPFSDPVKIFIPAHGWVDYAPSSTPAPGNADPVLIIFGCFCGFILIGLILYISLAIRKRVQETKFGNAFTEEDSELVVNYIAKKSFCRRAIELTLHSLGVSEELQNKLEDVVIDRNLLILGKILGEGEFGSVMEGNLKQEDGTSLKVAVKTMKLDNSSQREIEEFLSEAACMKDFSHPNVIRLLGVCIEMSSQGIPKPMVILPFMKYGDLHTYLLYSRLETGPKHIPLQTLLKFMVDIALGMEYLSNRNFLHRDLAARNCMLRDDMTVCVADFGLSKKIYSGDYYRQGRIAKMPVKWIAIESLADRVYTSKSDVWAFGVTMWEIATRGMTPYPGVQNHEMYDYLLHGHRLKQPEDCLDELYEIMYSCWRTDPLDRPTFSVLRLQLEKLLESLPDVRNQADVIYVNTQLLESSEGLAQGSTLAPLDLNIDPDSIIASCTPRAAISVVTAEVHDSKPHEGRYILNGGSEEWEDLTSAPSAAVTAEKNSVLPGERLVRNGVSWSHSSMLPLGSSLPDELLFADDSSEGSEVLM

A further test addresses T6, p38_delta (Homo sapiens, UniProt O15264).
T6 construct: gene MAPK13

In another test the target is T7, DNA-PK (Homo sapiens, UniProt P78527).
T7 construct: gene PRKDC

The next test deals with T8, PI3K-A (Homo sapiens, UniProt P42336).
T8 construct: gene PIK3CA

A further test addresses T9, MSK1 (Homo sapiens, UniProt O75582).
T9 construct: gene RPS6KA5

A further test addresses T10, MST2 (Homo sapiens, UniProt Q13188).
T10 construct: gene STK3

Sequence of CLK1 (P49759 whole entry): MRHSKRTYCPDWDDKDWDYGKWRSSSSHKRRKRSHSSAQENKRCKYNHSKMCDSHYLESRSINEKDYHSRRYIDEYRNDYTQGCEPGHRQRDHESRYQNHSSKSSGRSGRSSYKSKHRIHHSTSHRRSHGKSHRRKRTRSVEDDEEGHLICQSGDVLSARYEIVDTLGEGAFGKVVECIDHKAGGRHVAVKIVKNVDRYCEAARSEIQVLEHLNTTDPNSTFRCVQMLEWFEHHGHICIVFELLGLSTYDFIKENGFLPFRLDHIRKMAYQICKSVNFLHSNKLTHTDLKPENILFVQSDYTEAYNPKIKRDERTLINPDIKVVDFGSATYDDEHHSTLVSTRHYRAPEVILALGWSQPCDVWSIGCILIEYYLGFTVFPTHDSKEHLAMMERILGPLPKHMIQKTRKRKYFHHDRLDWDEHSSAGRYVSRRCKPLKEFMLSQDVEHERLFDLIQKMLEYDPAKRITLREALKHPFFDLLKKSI
T9 sequence (O75582 whole entry): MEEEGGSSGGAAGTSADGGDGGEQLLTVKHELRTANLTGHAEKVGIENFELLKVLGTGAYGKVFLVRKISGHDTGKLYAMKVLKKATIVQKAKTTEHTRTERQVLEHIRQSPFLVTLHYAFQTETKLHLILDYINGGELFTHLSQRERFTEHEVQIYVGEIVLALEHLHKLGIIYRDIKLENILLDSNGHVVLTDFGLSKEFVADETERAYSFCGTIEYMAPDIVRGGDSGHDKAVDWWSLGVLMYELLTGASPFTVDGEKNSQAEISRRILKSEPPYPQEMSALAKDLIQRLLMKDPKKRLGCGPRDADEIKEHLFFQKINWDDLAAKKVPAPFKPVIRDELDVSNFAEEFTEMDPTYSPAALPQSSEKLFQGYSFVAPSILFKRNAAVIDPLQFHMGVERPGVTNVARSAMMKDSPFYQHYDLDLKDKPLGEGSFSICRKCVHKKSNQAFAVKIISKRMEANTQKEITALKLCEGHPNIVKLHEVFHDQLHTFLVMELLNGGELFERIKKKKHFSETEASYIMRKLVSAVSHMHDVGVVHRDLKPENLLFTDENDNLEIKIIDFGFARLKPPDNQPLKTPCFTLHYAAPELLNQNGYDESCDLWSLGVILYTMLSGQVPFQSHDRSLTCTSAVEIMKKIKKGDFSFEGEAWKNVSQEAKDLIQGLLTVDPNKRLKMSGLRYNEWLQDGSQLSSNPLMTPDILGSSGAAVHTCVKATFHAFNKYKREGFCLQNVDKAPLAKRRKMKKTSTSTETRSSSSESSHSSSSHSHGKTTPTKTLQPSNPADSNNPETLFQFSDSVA
Sequence of Axl (P30530 whole entry): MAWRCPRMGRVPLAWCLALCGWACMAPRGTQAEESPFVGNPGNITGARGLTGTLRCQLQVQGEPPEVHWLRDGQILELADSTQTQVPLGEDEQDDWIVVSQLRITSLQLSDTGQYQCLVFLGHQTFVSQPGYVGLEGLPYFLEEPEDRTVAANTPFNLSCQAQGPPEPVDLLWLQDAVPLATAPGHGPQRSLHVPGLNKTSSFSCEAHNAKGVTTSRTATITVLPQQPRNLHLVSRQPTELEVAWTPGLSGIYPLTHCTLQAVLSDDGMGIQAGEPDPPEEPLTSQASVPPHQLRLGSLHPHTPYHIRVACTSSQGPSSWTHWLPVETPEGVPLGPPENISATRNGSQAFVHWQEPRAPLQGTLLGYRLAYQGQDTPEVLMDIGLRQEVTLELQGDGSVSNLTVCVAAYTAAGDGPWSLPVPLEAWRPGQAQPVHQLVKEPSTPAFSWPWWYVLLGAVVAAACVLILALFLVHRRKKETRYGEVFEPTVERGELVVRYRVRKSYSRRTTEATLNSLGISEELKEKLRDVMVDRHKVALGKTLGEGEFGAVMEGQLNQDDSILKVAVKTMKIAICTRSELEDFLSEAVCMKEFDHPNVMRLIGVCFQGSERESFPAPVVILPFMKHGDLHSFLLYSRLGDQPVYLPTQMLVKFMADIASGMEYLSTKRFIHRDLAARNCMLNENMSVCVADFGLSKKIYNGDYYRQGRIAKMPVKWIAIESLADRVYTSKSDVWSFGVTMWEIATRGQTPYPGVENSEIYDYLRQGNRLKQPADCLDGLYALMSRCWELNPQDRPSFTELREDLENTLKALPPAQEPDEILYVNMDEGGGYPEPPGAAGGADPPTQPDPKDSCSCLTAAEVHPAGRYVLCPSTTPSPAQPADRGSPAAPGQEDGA
Sequence of Flt1 (P17948 whole entry): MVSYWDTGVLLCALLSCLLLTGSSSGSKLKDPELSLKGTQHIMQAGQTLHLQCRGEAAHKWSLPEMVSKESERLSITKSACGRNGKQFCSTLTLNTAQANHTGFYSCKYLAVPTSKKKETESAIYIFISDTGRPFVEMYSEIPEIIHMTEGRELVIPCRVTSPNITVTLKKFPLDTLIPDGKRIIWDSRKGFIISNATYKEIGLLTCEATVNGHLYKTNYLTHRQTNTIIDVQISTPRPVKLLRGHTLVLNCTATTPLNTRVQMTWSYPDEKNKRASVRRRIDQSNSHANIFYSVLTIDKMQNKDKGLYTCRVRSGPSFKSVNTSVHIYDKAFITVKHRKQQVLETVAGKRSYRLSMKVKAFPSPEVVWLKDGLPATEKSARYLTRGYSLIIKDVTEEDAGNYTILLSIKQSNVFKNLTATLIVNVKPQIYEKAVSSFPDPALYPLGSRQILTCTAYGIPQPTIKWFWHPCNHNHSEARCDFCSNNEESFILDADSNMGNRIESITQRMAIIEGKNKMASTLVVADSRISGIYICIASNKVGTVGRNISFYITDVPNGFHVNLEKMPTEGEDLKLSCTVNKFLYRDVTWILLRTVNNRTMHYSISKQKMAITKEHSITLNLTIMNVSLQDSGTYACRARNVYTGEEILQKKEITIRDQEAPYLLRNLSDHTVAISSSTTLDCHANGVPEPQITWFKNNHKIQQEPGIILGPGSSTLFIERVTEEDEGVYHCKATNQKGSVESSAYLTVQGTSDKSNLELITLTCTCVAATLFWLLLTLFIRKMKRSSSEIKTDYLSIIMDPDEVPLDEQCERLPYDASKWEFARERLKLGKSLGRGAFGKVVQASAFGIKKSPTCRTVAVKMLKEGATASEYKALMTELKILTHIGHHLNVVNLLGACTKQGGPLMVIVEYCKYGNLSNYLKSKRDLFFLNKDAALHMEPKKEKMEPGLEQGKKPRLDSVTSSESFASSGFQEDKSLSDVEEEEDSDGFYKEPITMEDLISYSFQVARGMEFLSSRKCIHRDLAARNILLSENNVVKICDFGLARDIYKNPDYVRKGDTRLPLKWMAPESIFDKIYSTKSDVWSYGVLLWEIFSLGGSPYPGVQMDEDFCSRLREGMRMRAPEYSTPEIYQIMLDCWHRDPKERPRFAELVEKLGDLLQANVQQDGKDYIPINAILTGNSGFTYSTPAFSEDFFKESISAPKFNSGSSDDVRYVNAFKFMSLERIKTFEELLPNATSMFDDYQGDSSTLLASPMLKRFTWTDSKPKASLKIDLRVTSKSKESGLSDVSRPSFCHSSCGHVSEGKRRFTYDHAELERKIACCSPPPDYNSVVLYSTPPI
T6 sequence (O15264 whole entry): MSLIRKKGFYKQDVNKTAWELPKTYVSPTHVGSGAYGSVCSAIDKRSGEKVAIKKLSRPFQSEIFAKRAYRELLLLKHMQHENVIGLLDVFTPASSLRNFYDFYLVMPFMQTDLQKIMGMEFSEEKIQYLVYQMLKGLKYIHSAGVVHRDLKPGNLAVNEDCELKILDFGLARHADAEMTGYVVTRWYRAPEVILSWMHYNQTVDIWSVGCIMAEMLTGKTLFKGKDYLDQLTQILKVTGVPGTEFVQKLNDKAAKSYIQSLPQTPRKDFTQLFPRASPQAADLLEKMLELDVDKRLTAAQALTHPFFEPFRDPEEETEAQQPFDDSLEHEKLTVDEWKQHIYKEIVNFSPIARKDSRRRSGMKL

As usually defined, the inhibition is the change of the read-out against control, counted positive when it falls. Turning to `CC#CC(=O)Nc1cccc2c(Oc3ncccc3-c3ccnc(N[C@H]4CCCNC4)n3)c(C)ccc12` [G-7658], the inhibition at 1 µM was 1% at MAPKAPK2; 2% on CDK8/cyclinC; 0.5% on ZAK; -1.5% on Flt1; -1% at Axl; 0.5% at CaMKI_delta. In addition, the inhibition at 1 µM was 8% on Ros; -9% on STK16; -1% on PRAK; -0.5% at ACVR1B; 5.5% at CLK1; 4.5% at Mer. Further, the inhibition at 1 µM at p38_delta was 13.5%; on RIPK2 it was 27.5%; at DNA-PK, 11%; on PI3K-A it was -18.5%; on MKNK1 it was -1%; at MSK1, -6%. The inhibition at 1 µM was 2.5% on MST2; 8% on MARK3; 7.5% on TGFBR1; 19.5% at MELK; 3.5% at ErbB2; 6% at PLK1.

For the compound `CCOC(=O)Nc1cccc2c(Oc3ncccc3-c3ccnc(N[C@H]4CCCNC4)n3)c(C)ccc12` [G-1749], the inhibition at 1 µM at MAPKAPK2 was 7.5%; at CDK8/cyclinC it was 2.5%; at ZAK, -0.5%; on Flt1, -1%; at Axl it was -1.5%; on CaMKI_delta, 0%. For the same compound, the inhibition at 1 µM on Ros is 7%; on STK16 it was -5.5%; on PRAK, 0.5%; on ACVR1B it was 3%; on CLK1, 6%; on Mer, 4.5%. Also, the inhibition at 1 µM on p38_delta was 11.5%; at RIPK2 it was 13.5%; at DNA-PK, 6.5%; on PI3K-A, 10%; at MKNK1 it was 1.5%; on MSK1 it was -3%. The inhibition at 1 µM on MST2 was 5.5%; on MARK3, 8%; on TGFBR1, 5.5%; on MELK it was 33%; on ErbB2, 7.5%; on PLK1, 5%.
